Data as given in PMC7504735, “Enhanced Antigiardial Effect of Omeprazole Analog Benzimidazole Compounds” (Molecules, 2020).

Columns and labels:
[1] = tested on: Giardia lamblia trophozoites; assay: Antigiardial activity on G. lamblia trophozoites, trypan blue dye exclusion; assay type: cell-based; details: Giardia duodenalis, 48 h at 37 °C, pH 7.4, trypan blue
Method: Giardia lamblia WB strain (ATCC number 30957) was grown in a modified TYI-S-33 medium supplemented with 10% fetal bovine serum. The parasite was cultivated in 15 mL screw-capped borosilicate glass tubes containing 13 mL medium. The tubes were incubated on a 15° horizontal slant at 37 °C. Giardia was harvested from confluent culture by chilling the tubes on ice for 5‒10 min to detach cells, followed by centrifugation at 800× g for 5 min.
The antigiardial activity of the prepared compounds was tested as described. One milligram of a test compound was dissolved in 10 L of DMSO and topped up with 1 mL growth medium. The solution was filter-sterilized using 0.22-m syringe filters and the appropriate volumes of the solutions were taken to prepare the concentration of each compound in 1.5 mL microtubes. For each preparation, concentrations of 500, 250, 125, 62, and 31 µg/mL were prepared in a final volume of 1.5 mL. Each tube was inoculated with 5 × 10^4 trophozoites of G. lamblia and then incubated for 48 h at 37 °C. After incubation, 75 L of the treated trophozoites were subcultured individually for another 48 h in a fresh medium free of compounds. At the end of this period, the viable trophozoites were counted. Each compound was assayed in duplicate in three independent experiments. In each assay, appropriate controls were also tested, including a sample without compound and another with DMSO.
The parasites in each tube were counted using a standard hemocytometer at 10× objective. In each count, trypan blue was employed to distinguish live parasites from dead ones. To permit detachment of Giardia, the tubes were placed on ice for 10 min and the parasites were then centrifuged at 800× g for 10 min. The supernatant was discarded and 1 mL fresh medium was added to each tube. The final suspension was prepared by mixing 25 μL of the parasite suspension in each tube with 100 μL of 0.4% trypan blue in phosphate-buffered saline (PBS). The 50% inhibitory concentration (IC50) was employed as a parameter for biological activity. The IC50 is the concentration of compounds that cuts the number of parasites to half that in the negative control (growth medium + DMSO + parasites). Lastly, the 50% inhibitory concentration (IC50) was calculated.

in vitro = assay type: cell-based; details: human, Caco-2; for CC50 at 48 h: XTT; for selectivity ratio at 48 h: ratio of CC50/IC50 between mammal cells and trophozoites, read-out: Selectivity index (SI), CC50 Caco-2 / IC50 trophozoites; for viability at 48 h, 500 µM: read-out: Viability of Caco-2 cells (lowered to)
Method: (§1) The cytotoxicity of compounds was investigated on human cell lines Caco-2 (ATCC HTB-37) and HT-29 (ATCC HHTB-38), using a Cell Proliferation Kit II (XTT; St Louis, MO, USA) according to the manufacturer’s instructions. A cell suspension of 10^5 cells/mL was prepared in Dulbecco’s modified Eagle’s (DMEM); medium supplemented with 10% inactivated fetal bovine serum and 1% Penicillin/streptomycin (5000 U/mL), from confluent cultures, and […] portions of the suspension were added to the wells of 96-well plates. […] Solutions of the compound were prepared and sterilized as described in Section 3.4.1 of Materials and Methods. Then, 150 μL of two-fold serial dilutions of each of the compounds, starting at a concentration of 500 µM, in a culture medium at a concentration of 0.3% DMSO, were prepared in the plates. […] Each compound was assayed in triplicate via three independent experiments.

Caco-2 cells = assay: in vitro; assay type: cell-based
Method: as §1

[2] = target: T1, triosephosphate isomerase (TPI) (Giardia intestinalis, UniProt P36186); assay: Intrinsic fluorescence of TPI; details: for Decrease of maximum intrinsic fluorescence intensity of TPI: compared to the TPI enzyme free of compounds; for Maximum intrinsic fluorescence intensity of TPI: compound at IC50 concentration, TPI without inhibitors 161 a.u. at 330 nm
T1 construct: His-tag (TEV-cleavable) (cleaved yes); made in house
T1 sequence (P36186 whole entry): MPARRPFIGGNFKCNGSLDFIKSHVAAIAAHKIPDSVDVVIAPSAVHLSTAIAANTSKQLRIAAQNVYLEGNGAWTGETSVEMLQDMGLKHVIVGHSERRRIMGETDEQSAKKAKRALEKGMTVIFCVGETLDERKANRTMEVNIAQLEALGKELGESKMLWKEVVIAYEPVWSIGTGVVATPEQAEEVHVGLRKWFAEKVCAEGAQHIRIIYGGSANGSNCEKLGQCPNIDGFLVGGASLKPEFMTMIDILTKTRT
Method: Changes in tertiary structure were analyzed following the intrinsic and extrinsic fluorescence of the TPI enzyme in a Perkin-Elmer LS-55 spectrofluorometer (Perkin-Elmer, Wellesley, MA, USA). The TPI protein was adjusted at 0.1 mg/mL in 50 mM phosphate buffer (buffer P), pH 7.4n, and incubated with the four synthesized compounds by 2 h at 37 °C. After the TPI protein was incubated with the synthesized compounds, the samples were excited at 280 nm and we recorded the emission spectra from 300 to 500 nm with a scan speed of 150 nm/min and using excitation and emission slits of 5 and 4 nm, respectively. Furthermore, we determined the extrinsic fluorescence of the TPI enzyme in the presence of the four compounds by 8-anilinonaphthalene-1-sulfonic acid (ANS) assay to monitor changes in the hydrophobic regions of the protein. The protein was incubated in the same conditions as the intrinsic fluorescence assay. Then, we recorded the fluorescence spectra from 400 to 600 nm in the presence of 25 mM of ANS dissolved in methanol at 25 °C with a scanning rate of 150 nm/min. The samples were excited to 395 nm using slits of excitation and emission of 10 nm, respectively. The final spectrum was the average of five scans. Later, each spectrum was subtracted from the spectra of the blank (buffer P solution containing each of the compounds plus ANS).

[3] = In vitro cytotoxicity, XTT assay, HT29; assay type: cell-based, human; details: human, HT-29 cells; for CC50 at 48 h: XTT; for viability at 48 h, 500 µM: read-out: Viability of HT-29 cells (lowered to)
Method: as §1

HT29 cells = assay: In vitro cytotoxicity, XTT assay, HT29; assay type: cell-based, human; details: for Selectivity index (SI), CC50 HT29 / IC50 trophozoites: ratio of CC50/IC50 between mammal cells and trophozoites
Method: as §1

[4] = target: T1, triosephosphate isomerase (TPI); assay: Thermal stability of TPI by circular dichroism at 222 nm; details: for Tm of TPI enzyme incubated with compound: compound at its IC50 concentration, 2 h at 37 °C, TPI free of treatment 60.6 °C
Method: All spectroscopic assays were carried out at a protein concentration of 0.2 mg/mL. Changes in the secondary structure of proteins were monitored by circular dichroism (CD) in a Jasco-810 spectropolarimeter containing a thermostated Peltier-controlled cell holder. For CD experiments, the enzyme was suspended in 50 mM phosphate buffer (buffer P), pH 7.4, and incubated with the four synthesized compounds by 2 h at 37 °C. Spectral scans from 190 to 280 nm at 0.1 nm intervals were performed at 25 °C using a quartz cell with 0.1 cm path length. All CD data were reported as molar ellipticity. In addition, the thermostability of modified TPI enzyme in the absence or presence of each of the synthesized compounds was evaluated, recording the loss of CD signal at 222 nm during a temperature scan ranging from 25 to 75 °C and an increase of 1 °C/2.5 min. The unfolded fraction of enzyme and melting temperature (Tm) was determined as reported before. The experiments were performed in triplicate.

[5] = 500 µM (highest concentration tested)

Which IC50 [1] does the source give for `COc1c(C)cnc(C[S+]([O-])c2nc3ccccc3[nH]2)c1C` (stereo not drawn) [H-BZM2, 2-[(4-methoxy-3,5-dimethylpyridin-2-yl)methanesulfinyl]-1H-benzimidazole] here?
The IC50 was 36 µM.

And the CC50 at 48 h (in vitro)?
Its CC50 at 48 h is 3180 µM.

What about the selectivity ratio at 48 h (in vitro) of the same compound?
Its selectivity ratio at 48 h is 88.

What about the “Cell viability decrease, Caco-2” value (Caco-2 cells; [5]) of the same compound?
Its value is “approximately 20%”.

What about the “Decrease of maximum intrinsic fluorescence intensity of TPI” value (from here on “Decrease … of TPI”) [2] of the same compound?
Its value is 75%.

And the “Maximum intrinsic fluorescence intensity of TPI” value [2]?
Its value is 40.1 a.u.

And the CC50 at 48 h [3]?
The CC50 at 48 h was 1910 µM.

What about the “Cell viability decrease, HT29” value (HT29 cells; [5]) of the same compound?
The value was “approximately 20%”.

What about the “Selectivity index (SI), CC50 HT29 / IC50 trophozoites” value (HT29 cells) of the same compound?
The value was 53.

What about the “Tm of TPI enzyme incubated with compound” value [4] of the same compound?
The value was 59.9 °C.

Which results are given for `Cc1c(OCC(F)(F)F)ccnc1C[S+]([O-])c1nc2ccccc2[nH]1` (stereo not drawn) [Lansoprazole, 2-{[3-methyl-4-(2,2,2-trifluoroethoxy)pyridin-2-yl]methanesulfinyl}-1H-benzimidazole, reference compound]?
IC50 [1]: 45 µM; selectivity ratio at 48 h (in vitro): 59; Cell viability decrease, Caco-2 (Caco-2 cells; [5]): approximately 20%; CC50 (Caco-2 cells; XTT, 48 h): 2640 µM; Decrease of maximum intrinsic fluorescence intensity of TPI [2]: 25%; Maximum intrinsic fluorescence intensity of TPI [2]: 123 a.u.; Cell viability decrease, HT29 (HT29 cells; [5]): approximately 20%; CC50 (HT29 cells; XTT, 48 h): 548 µM; Selectivity index (SI), CC50 HT29 / IC50 trophozoites (HT29 cells): 12; Tm of TPI enzyme incubated with compound [4]: 60.2 °C

For `O=[N+]([O-])c1ccc2nc([S+]([O-])Cc3ccccn3)[nH]c2c1` (stereo not drawn) [O2N-BZM7, 5-nitro-2-[(pyridin-2-yl)methanesulfinyl]-1H-benzimidazole], which IC50 [1] is on record?
Its IC50 is 14 µM.

And the viability at 48 h, 500 µM (in vitro)?
The viability at 48 h, 500 µM was about 50%.

And the CC50 at 48 h (in vitro)?
The CC50 at 48 h was 640 µM.

And the selectivity ratio at 48 h (in vitro)?
The selectivity ratio at 48 h was 45.

What about the “Cell viability decrease, Caco-2” value (Caco-2 cells; 150 µM) of the same compound?
Its value is “around 20%”.

And the “Decrease … of TPI” value [2]?
Its value is 33%.

And the “Maximum intrinsic fluorescence intensity of TPI” value [2]?
Its value is 107 a.u.

What about the viability at 48 h, 500 µM [3] of the same compound?
The viability at 48 h, 500 µM was about 50%.

And the CC50 at 48 h [3]?
Its CC50 at 48 h is 519 µM.

And the “Cell viability decrease, HT29” value (HT29 cells; 150 µM)?
The value was “around 20%”.

And the “Selectivity index (SI), CC50 HT29 / IC50 trophozoites” value (HT29 cells)?
The value was 37.

And the “Tm of TPI enzyme incubated with compound” value [4]?
Its value is 57.5 °C.

What about the “Loss in thermal stability of TPI” value ([4]; versus TPI free of treatment) of the same compound?
Its value is 3 °C.

With `Cc1c(OCC(F)(F)F)ccnc1C[S+]([O-])c1nc2ccc([N+](=O)[O-])cc2[nH]1` (stereo not drawn) [O2N-BZM9, 2-{[3-methyl-4-(2,2,2-trifluoroethoxy)pyridin-2-yl]methanesulfinyl}-5-nitro-1H-benzimidazole] as the compound, how does the IC50 [1] read?
The IC50 was 17 µM.

What about the viability at 48 h, 500 µM (in vitro) of the same compound?
The viability at 48 h, 500 µM was about 50%.

And the CC50 at 48 h (in vitro)?
Its CC50 at 48 h is 663 µM.

And the selectivity ratio at 48 h (in vitro)?
Its selectivity ratio at 48 h is 39.

What about the “Cell viability decrease, Caco-2” value (Caco-2 cells; 150 µM) of the same compound?
Its value is “around 20%”.

And the “Decrease … of TPI” value [2]?
Its value is 55%.

And the “Maximum intrinsic fluorescence intensity of TPI” value [2]?
The value was 72.6 a.u.

And the viability at 48 h, 500 µM [3]?
The viability at 48 h, 500 µM was about 50%.

And the CC50 at 48 h [3]?
Its CC50 at 48 h is 622 µM.

And the “Cell viability decrease, HT29” value (HT29 cells; 150 µM)?
The value was “around 20%”.

And the “Selectivity index (SI), CC50 HT29 / IC50 trophozoites” value (HT29 cells)?
The value was 36.

And the “Tm of TPI enzyme incubated with compound” value [4]?
Its value is 58.4 °C.
